Patent US10889554B2, “Excimer forming compounds” (THE GOVERNING COUNCIL OF THE UNIVERSITY OF TORONTO, priority 2013, dated 2021)

System: fixed cells
Experiment: Fixed cell imaging: monitoring decrease in proximal phosphorylation
Type: cell-based
Details: 22 nM, pre-treatment prior to cell fixation
Experimental: (3 h prior to fixation, media was removed and 22 nM of Staurosporine (BioShop, cat. STA001) solution in fresh media was added and incubated at 37° C., 5% CO2 for 3 h).

CN[C@@H]1C[C@H]2O[C@@](C)([C@@H]1OC)n1c3ccccc3c3c4c(c5c6ccccc6n2c5c31)C(=O)NC4 [staurosporine]
fluorescence intensity of compound 1-Zn^2+ complex compared to untreated control: time-dependent decrease
